Reference: ChEMBL document CHEMBL5550206, “Identification of 6-Fluorine-Substituted Coumarin Analogues as POLRMT Inhibitors with High Potency and Safety for Treatment of Pancreatic Cancer” (J Med Chem, 2024)
Calls of active or inactive are those of the source. The calls are words filed in the database; no cut-off is given here.

Assays:
[1] = molecular target: DNA-directed RNA polymerase, mitochondrial (Homo sapiens) (UniProt O00411); test: Inhibition of human POLRMT in human MIA PaCa-2 cells assessed as mitochondria coded ubiquinone oxidoreductase core subunit 1 (ND I) transcript level at 500 nM measured after 24 hrs by RT-qPCR analysis relative to control; set-up: scale not given: the % may be the effect or the level left
MIA PaCa-2 [2] = test: Antiproliferative activity against human MIA PaCa-2 cells assessed as cell viability measured after 168 hrs incubation by SRB assay; type: functional, cell-based; details: MIA PaCa-2, 168 h
MIA PaCa-2 [3] = test: Effect on mitochondrial membrane potential loss in human MIA PaCa-2 cells assessed as change in membrane potential at 0.1 to 5 uM incubated for 96 hrs by JC-1 staining based flow cytometry analysis; type: functional, cell-based; details: dose 0.1-5 µM
MIA PaCa-2 [4] = test: Induction of intracellular ROS generation in human MIA PaCa-2 cells at 0.1 to 5 uM incubated for 96 hrs by DCFH-DA staining based flow cytometry; type: functional, cell-based; details: dose 0.1-5 µM
MIA PaCa-2 [5] = test: Reduction in number of mitochondria in human MIA PaCa-2 cells measured after 96 hrs by Mito-Tracker Green and DAPI staining based assay; type: functional, cell-based; details: dose 10-1000 nM
[6] = Antiproliferative activity against human […] cells assessed as cell viability measured after 168 hrs incubation by SRB assay; type: functional, cell-based
PANC-1 = test: Antiproliferative activity against human PANC-1 cells assessed as cell viability measured after 168 hrs incubation by SRB assay; type: functional, cell-based; details: PANC-1, 168 h
CAPAN-1 = test: Antiproliferative activity against human CAPAN-1 cells assessed as cell viability measured after 168 hrs incubation by SRB assay; type: functional, cell-based; details: CAPAN-1, 168 h
[7] = Antiproliferative activity against HUVEC cells assessed as cell viability measured after 168 hrs incubation by SRB assay; type: toxicity, cell-based; details: human
MIA PaCa-2 [8] = test: In vivo antitumor activity against human MIA PaCa-2 cells xenografted in BALB/c mouse assessed as reduction in tumor weight at 100 mg/kg, iv once daily for 25 consecutive day after 2 weeks of cells injection relative to control; type: functional; details: MIA PaCa-2, 600 h, time 25 day
[9] = Toxicity in BALB/c mouse xenografted with human MIA PaCa-2 cells assessed as pathological change in liver at 100 mg/kg, iv once daily for 25 consecutive day after 2 weeks of cells injection by H and E staining based optical microscopic analysis; type: organism-based; details: in vivo, 336 h
[10] = Toxicity in BALB/c mouse xenografted with human MIA PaCa-2 cells assessed as pathological change in spleen at 100 mg/kg, iv once daily for 25 consecutive day after 2 weeks of cells injection by H and E staining based optical microscopic analysis; type: organism-based; details: in vivo, 336 h
[11] = Toxicity in BALB/c mouse xenografted with human MIA PaCa-2 cells assessed as pathological change in lung at 100 mg/kg, iv once daily for 25 consecutive day after 2 weeks of cells injection by H and E staining based optical microscopic analysis; type: organism-based; details: in vivo, 336 h
[12] = Toxicity in BALB/c mouse xenografted with human MIA PaCa-2 cells assessed as pathological change in kidney at 100 mg/kg, iv once daily for 25 consecutive day after 2 weeks of cells injection by H and E staining based optical microscopic analysis; type: organism-based; details: in vivo, 336 h
[13] = Toxicity in BALB/c mouse xenografted with human MIA PaCa-2 cells assessed as pathological change in heart at 100 mg/kg, iv once daily for 25 consecutive day after 2 weeks of cells injection by H and E staining based optical microscopic analysis; type: organism-based; details: in vivo, 336 h
MIA PaCa-2 [14] = test: Potency index, ratio of IMT1B IC50 to test compound […] for antiproliferative activity against human MIA PaCa-2 cells assessed as cell viability measured after 168 hrs incubation by SRB assay; type: functional

Chain of DNA-directed RNA polymerase, mitochondrial (Homo sapiens) (O00411 whole entry): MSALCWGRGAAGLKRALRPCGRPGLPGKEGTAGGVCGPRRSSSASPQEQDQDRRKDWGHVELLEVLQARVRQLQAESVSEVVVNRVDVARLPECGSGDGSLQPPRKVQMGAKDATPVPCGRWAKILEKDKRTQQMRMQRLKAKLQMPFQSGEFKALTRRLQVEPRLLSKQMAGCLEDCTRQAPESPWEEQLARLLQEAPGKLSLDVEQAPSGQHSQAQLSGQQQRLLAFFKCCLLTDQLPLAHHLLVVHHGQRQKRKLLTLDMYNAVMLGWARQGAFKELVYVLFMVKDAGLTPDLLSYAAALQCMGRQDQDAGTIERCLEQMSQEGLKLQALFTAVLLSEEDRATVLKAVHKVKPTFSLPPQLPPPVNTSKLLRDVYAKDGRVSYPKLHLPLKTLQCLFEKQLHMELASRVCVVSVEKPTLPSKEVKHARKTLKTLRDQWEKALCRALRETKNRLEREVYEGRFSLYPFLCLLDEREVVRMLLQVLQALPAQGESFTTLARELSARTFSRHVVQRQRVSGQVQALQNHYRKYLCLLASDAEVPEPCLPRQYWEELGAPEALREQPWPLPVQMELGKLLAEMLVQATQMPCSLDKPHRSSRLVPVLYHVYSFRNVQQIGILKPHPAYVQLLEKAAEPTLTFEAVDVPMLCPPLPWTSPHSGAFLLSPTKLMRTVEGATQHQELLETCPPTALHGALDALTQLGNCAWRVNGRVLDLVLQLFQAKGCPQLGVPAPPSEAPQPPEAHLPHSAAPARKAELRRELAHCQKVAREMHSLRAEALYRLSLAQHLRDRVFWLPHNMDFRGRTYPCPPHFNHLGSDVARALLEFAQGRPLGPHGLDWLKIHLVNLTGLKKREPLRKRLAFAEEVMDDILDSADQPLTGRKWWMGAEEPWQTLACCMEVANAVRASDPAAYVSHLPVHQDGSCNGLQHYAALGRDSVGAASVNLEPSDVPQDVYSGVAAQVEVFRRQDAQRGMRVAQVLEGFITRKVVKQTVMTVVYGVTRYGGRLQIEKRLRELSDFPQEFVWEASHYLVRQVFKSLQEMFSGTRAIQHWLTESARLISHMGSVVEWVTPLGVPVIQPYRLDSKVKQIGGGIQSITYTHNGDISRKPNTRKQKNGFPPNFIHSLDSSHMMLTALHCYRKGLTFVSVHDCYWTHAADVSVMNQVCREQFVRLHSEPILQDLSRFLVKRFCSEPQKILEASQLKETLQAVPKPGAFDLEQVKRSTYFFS

SMILES	Activity [1]	IC50 (MIA PaCa-2 [2])	further results
C[C@@H](Oc1cc2oc(=O)cc(-c3ccc(F)cc3Cl)c2cc1F)C(=O)N1CCCC(C#N)C1 (stereo partly drawn)	26%	305 nM	–
CCN(CC)C(=O)[C@@H](C)Oc1cc2oc(=O)cc(-c3ccccc3)c2cc1F	44%	682 nM	–
CCN(CC)C(=O)[C@@H](C)Oc1cc2oc(=O)cc(-c3ccccc3OC)c2cc1F	48%	1130 nM	–
C[C@@H](Oc1cc2oc(=O)cc(-c3ccc(F)cc3Cl)c2cc1F)C(=O)N(C)C	25%	171 nM	–
CCN(CC)C(=O)[C@@H](C)Oc1cc2oc(=O)cc(-c3cccc(Cl)c3)c2cc1F	60%	3240 nM	–
CCN(CC)C(=O)[C@@H](C)Oc1cc2oc(=O)cc(-c3ccccc3F)c2cc1F	30%	400 nM	–
C[C@@H](Oc1cc2oc(=O)cc(-c3ccc(F)cc3Cl)c2cc1F)C(=O)N1CCCC1	35%	456 nM	–
C[C@@H](Oc1cc2oc(=O)cc(-c3ccc(F)cc3Cl)c2cc1F)C(=O)N1CCC(F)CC1	19%	115 nM	–
C[C@@H](Oc1cc2oc(=O)cc(-c3ccc(F)cc3Cl)c2cc1F)C(=O)NCC1CC1	26%	294 nM	–
COc1cc2c(-c3ccc(F)cc3Cl)cc(=O)oc2cc1O[C@H](C)C(=O)N1CCC[C@H](C(=O)O)C1	67%	> 5000 nM	–
CO[C@H]1CC[C@@H](NC(=O)[C@@H](C)Oc2cc3oc(=O)cc(-c4ccc(F)cc4Cl)c3cc2F)CC1	52%	2230 nM	–
C[C@@H](Oc1cc2oc(=O)cc(-c3ccc(F)cc3Cl)c2cc1F)C(=O)N1CCCCC1	16%	78 nM	–
C[C@@H](Oc1ccc2c(-c3ccc(F)cc3Cl)cc(=O)oc2c1)C(=O)N1CCC[C@H](C(=O)O)C1	23%	159 nM	Activity (MIA PaCa-2 [3]): inactive; Activity (MIA PaCa-2 [4]): inactive; Activity (MIA PaCa-2 [5]): Dose-Dependent Effect; IC50 [6]: 67 nM; IC50 (PANC-1): 1570 nM; IC50 (CAPAN-1): 1350 nM; IC50 at 168 h [7]: > 50 µM; inhibition in vivo at 100 mg/kg (MIA PaCa-2 [8]): 44.8%; Activity [9]: Non-Toxic; Activity [10]: Non-Toxic; Activity [11]: Non-Toxic; Activity [12]: Non-Toxic; Activity [13]: Non-Toxic
C[C@@H](Oc1cc2oc(=O)cc(-c3ccc(F)cc3Cl)c2cc1F)C(=O)N1CCC1	33%	493 nM	–
CCN(CC)C(=O)[C@@H](C)Oc1cc2oc(=O)cc(-c3ccc(F)cc3Cl)c2cc1F	13%	44 nM	Ratio IC50 (MIA PaCa-2 [14]): 3
C[C@@H](Oc1cc2oc(=O)cc(-c3ccc(F)cc3Cl)c2cc1F)C(=O)N1CCC[C@H](C(=O)O)C1	22%	145 nM	–
C[C@@H](Oc1cc2oc(=O)cc(-c3ccc(F)cc3Cl)c2cc1Cl)C(=O)N1CCC[C@H](C(=O)O)C1	30%	–	–
C[C@@H](Oc1cc2oc(=O)cc(-c3ccc(F)cc3Cl)c2cc1F)C(=O)N(C)C1COC1	50%	1690 nM	–
CCN(CC)C(=O)[C@@H](C)Oc1cc2oc(=O)cc(-c3ccccc3Cl)c2cc1F	10%	14 nM	–
C[C@@H](Oc1cc2oc(=O)cc(-c3ccc(F)cc3Cl)c2cc1F)C(=O)NCCC#N	51%	1160 nM	–
CCN(CC)C(=O)[C@@H](C)Oc1cc2oc(=O)cc(-c3ccc(Cl)cc3)c2cc1F	55%	2240 nM	–
CC1CCN(C(=O)[C@@H](C)Oc2cc3oc(=O)cc(-c4ccc(F)cc4Cl)c3cc2F)CC1	31%	486 nM	–
C[C@@H](Oc1cc(Cl)c2c(-c3ccc(F)cc3Cl)cc(=O)oc2c1)C(=O)N1CCC[C@H](C(=O)O)C1	85%	> 5000 nM	–
C[C@@H](Oc1ccc2c(-c3ccc(F)cc3Cl)cc(=O)oc2c1Cl)C(=O)N1CCC[C@H](C(=O)O)C1	119%	> 5000 nM	–
C[C@@H](Oc1cc2oc(=O)cc(-c3ccc(F)cc3Cl)c2cc1F)C(=O)NCC(F)F	22%	139 nM	–
CCN(CC)C(=O)[C@@H](C)Oc1cc2oc(=O)cc(-c3cccc4ccccc34)c2cc1F	42%	739 nM	–
C[C@@H](Oc1cc2oc(=O)cc(-c3ccc(F)cc3Cl)c2cc1F)C(=O)N1CCCOCC1	15%	72 nM	–
CC(C)c1cc2c(-c3ccc(F)cc3Cl)cc(=O)oc2cc1O[C@H](C)C(=O)N1CCC[C@H](C(=O)O)C1	46%	1090 nM	–
C[C@@H](Oc1cc2oc(=O)cc(-c3ccc(F)cc3Cl)c2cc1F)C(=O)N1CCC(Cl)CC1	34%	523 nM	–
C[C@@H](Oc1cc2oc(=O)cc(-c3ccc(F)cc3Cl)c2cc1F)C(=O)N1CCC(F)(F)CC1	28%	377 nM	–
